Reference: US11407748B2, “Substituted pyrido[1,2-a]pyrimidines and pyrazino[1,2-a]pyrimidines for enhancing AMPA receptor function” (Takeda Pharmaceutical Company Limited, priority 2017, dated 2022)

Molecular target: T1, hGluR1 flip (Homo sapiens, UniProt P42261)
T1 construct: expressed in transfected cells; host or cells: CHO-K1
Experiment: AMPA receptor function-enhancing activity using calcium influx as index
Assay type: cell-based
Details: test compound 30 μM with 3 mM glutamic acid; CHO-K1/GluR1 flip/stargazin-expressing cells; 100% = 3 mM glutamic acid + 300 μM cyclothiazide, 0% = 3 mM glutamic acid alone
In short: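 CHO-K1 cells co-expressing human GluR1 flip and stargazin, loaded with Calcium5 dye with 1.25 mM probenecid. Test compound at 30 μM added with 3 mM glutamate; fluorescence followed 3 min. Activity % scaled between glutamate alone (0%) and glutamate plus 300 μM cyclothiazide (100%).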

T1 sequence (P42261 19-906 isoform P42261-2 limits assumed): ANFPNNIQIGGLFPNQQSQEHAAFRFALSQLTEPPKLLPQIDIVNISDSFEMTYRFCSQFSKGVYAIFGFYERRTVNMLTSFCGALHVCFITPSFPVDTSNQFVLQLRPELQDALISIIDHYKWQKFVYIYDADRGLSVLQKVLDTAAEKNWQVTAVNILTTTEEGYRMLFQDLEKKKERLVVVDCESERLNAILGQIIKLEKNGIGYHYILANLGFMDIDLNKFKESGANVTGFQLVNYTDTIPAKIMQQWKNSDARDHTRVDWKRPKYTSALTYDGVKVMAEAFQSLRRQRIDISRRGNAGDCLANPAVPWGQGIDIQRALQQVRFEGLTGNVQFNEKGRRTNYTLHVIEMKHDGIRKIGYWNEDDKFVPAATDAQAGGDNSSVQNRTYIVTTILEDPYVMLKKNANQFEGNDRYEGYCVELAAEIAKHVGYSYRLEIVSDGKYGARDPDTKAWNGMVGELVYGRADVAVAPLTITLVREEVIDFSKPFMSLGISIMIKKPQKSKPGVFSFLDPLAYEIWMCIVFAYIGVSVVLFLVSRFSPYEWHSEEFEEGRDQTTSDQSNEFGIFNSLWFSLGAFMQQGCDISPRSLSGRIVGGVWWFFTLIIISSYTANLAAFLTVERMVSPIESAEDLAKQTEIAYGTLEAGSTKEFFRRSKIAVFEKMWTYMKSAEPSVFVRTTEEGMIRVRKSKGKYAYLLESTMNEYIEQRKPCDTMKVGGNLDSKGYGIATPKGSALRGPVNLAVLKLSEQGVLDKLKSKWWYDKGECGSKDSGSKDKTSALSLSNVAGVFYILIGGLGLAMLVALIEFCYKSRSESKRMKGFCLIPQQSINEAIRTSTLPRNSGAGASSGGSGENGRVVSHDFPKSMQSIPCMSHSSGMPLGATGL
T1 sequence (Q9Y698 whole entry partner): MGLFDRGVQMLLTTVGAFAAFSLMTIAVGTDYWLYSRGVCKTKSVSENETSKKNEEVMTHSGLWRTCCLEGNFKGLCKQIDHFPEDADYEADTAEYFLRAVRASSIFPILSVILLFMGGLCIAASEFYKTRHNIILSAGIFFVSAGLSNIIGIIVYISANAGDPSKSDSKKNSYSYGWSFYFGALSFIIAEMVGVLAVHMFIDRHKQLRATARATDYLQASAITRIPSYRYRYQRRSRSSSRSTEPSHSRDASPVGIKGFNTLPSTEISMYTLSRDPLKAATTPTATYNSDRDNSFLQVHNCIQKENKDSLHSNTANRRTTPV

Compound | activation at 30 µM [%] | hGluR1 flip/30 μM (%)
CN(CCC#N)C(=O)c1ccc(-c2cccn3c(=O)c(Br)c(C(F)(F)F)nc23)cc1 [Example 99, 4-(3-bromo-4-oxo-2-(trifluoromethyl)-4H-pyrido[1,2-a]pyrimidin-9-yl)-N-(2-cyanoethyl)-N-methylbenzamide] | 76.9 | –
Cc1c(C(F)(F)F)nc2c(-c3ccc(C(=O)N(C)CCC#N)cc3)cccn2c1=O [Example 100, N-(2-cyanoethyl)-N-methyl-4-(3-methyl-4-oxo-2-(trifluoromethyl)-4H-pyrido[1,2-a]pyrimidin-9-yl)benzamide] | 89.2 | –
Cc1c(C(F)(F)F)nc2c(-c3ccc(C(=O)N[C@@H]4CCCOC4)cc3)cccn2c1=O [Example 102, 4-(3-methyl-4-oxo-2-(trifluoromethyl)-4H-pyrido[1,2-a]pyrimidin-9-yl)-N-((3R)-tetrahydro-2H-pyran-3-yl)benzamide] | 73.8 | –
O=C(c1ccc(-c2cccn3c(=O)c(Br)c(C(F)(F)F)nc23)cc1)N1CCOC(C(F)F)C1 (stereo not drawn) [Example 103, 3-bromo-9-(4-((2-(difluoromethyl)morpholin-4-yl)carbonyl)phenyl)-2-(trifluoromethyl)-4H-pyrido[1,2-a]pyrimidin-4-one] | 88.6 | –
Cc1c(C(F)(F)F)nc2c(-c3ccc(C(=O)N4CCOC(C(F)F)C4)cc3)cccn2c1=O (stereo not drawn) [Example 106, 9-(4-((2-(difluoromethyl)morpholin-4-yl)carbonyl)phenyl)-3-methyl-2-(trifluoromethyl)-4H-pyrido[1,2-a]pyrimidin-4-one] | – | 85.9
Cc1c(C(F)(F)F)nc2c(-c3ccc(C(=O)N4CCOC(C(F)F)C4)cc3)cccn2c1=O (stereo not drawn) [Example 107, 9-(4-((2-(difluoromethyl)morpholin-4-yl)carbonyl)phenyl)-3-methyl-2-(trifluoromethyl)-4H-pyrido[1,2-a]pyrimidin-4-one] | – | 86
O=C(N[C@H]1CCCOC1)c1ccc(-c2cccn3c(=O)c(Br)c(C(F)(F)F)nc23)cc1F [Example 110, 4-(3-bromo-4-oxo-2-(trifluoromethyl)-4H-pyrido[1,2-a]pyrimidin-9-yl)-2-fluoro-N-((3S)-tetrahydro-2H-pyran-3-yl)benzamide] | 86.8 | –
O=C(N[C@@H]1CCCOC1)c1ccc(-c2cccn3c(=O)c(Br)c(C(F)(F)F)nc23)cc1F [Example 111, 4-(3-bromo-4-oxo-2-(trifluoromethyl)-4H-pyrido[1,2-a]pyrimidin-9-yl)-2-fluoro-N-((3R)-tetrahydro-2H-pyran-3-yl)benzamide] | 91 | –
O=C(c1ccc(-c2cccn3c(=O)c(Br)c(C(F)(F)F)nc23)cc1)N1CCOC(C(F)F)C1 (stereo not drawn) [Example 113, 3-bromo-9-(4-((2-(difluoromethyl)morpholin-4-yl)carbonyl)phenyl)-2-(trifluoromethyl)-4H-pyrido[1,2-a]pyrimidin-4-one] | – | 78.7
O=C(c1ccc(-c2cccn3c(=O)c(Br)c(C(F)(F)F)nc23)cc1)N1CCOC(C(F)F)C1 (stereo not drawn) [Example 114, 3-bromo-9-(4-((2-(difluoromethyl)morpholin-4-yl)carbonyl)phenyl)-2-(trifluoromethyl)-4H-pyrido[1,2-a]pyrimidin-4-one] | – | 77.2
Cc1c(C(F)(F)F)nc2c(-c3ccc(C(=O)N[C@H]4CCCOC4)c(F)c3)cccn2c1=O [Example 115, 2-fluoro-4-(3-methyl-4-oxo-2-(trifluoromethyl)-4H-pyrido[1,2-a]pyrimidin-9-yl)-N-((3S)-tetrahydro-2H-pyran-3-yl)benzamide] | 87.9 | –
CN(CC1(C#N)CC1)C(=O)c1ccc(-c2cccn3c(=O)c(Br)c(C(F)(F)F)nc23)cc1 [Example 118, 4-(3-bromo-4-oxo-2-(trifluoromethyl)-4H-pyrido[1,2-a]pyrimidin-9-yl)-N-((1-cyanocyclopropyl)methyl)-N-methylbenzamide] | 84 | –
